Data on eight compounds can be found in patent US11834458B2, “Anti-cancer nuclear hormone receptor-targeting compounds” (Nuvation Bio Inc., priority 2021, dated 2023).

Assay [1] has as its system T47D cells. Briefly: Cell viability assay, T47D. Format: cell-based. Particulars: Homo sapiens, 144 h. Here is the method:
(§1) Cell viability assay: LNCap, 22Rv1, MCF7, MDAMB361, T47D, and IEC6 cells are seeded at a density of 500-2000 cells/well in 96 well plates, and a ‘T0’ (timepoint 0) was included along with the assay plate. The plates are then incubated at 37° C., 5% CO2 in a cell culture incubator overnight. On the next day, the ‘T0’ plate was assayed using CellTiterGlo (Promega, Inc) according to the manufacturer's instructions. The appropriate compounds are diluted in DMSO and added to the assay plate (final DMSO concentration of 0.1-0.2%) on the next day. The assay plates are incubated for 6 days at 37° C., 5% CO2. After the incubation period, the plates are assayed using CellTiterGlo (Promega, Inc) according to the manufacturer's instructions and luminescence was read on the EnVision plate reader. Inhibition of the tested compounds was determined by the following formula: Inhibition rate (%)=(1−(RLU compound−RLU day0)/(RLU control−RLU day0))*100%. GraphPadPrism was used to analyze the data and determine GI50/IC50 values.

The subject of assay [2] is LNCap cells. Briefly: Cell viability assay, LNCap. Format: cell-based. Particulars: Homo sapiens, 144 h. On the procedure: as §1
For assay [3], the system named is IEC6 cells. Kind of assay: Cell viability assay, IEC6. Format: cell-based. Particulars: Rattus norvegicus. On the procedure:
as §1

For assay [4], the target named is full-length androgen receptor (Homo sapiens (Human), UniProt P10275). Kind of assay: AR antagonism assay. The assay is classed as cell-based. Here is the method:
AR antagonism assay: To evaluate AR antagonist activity, test compound was added to the assay plate (top dose 10 μM, 3 fold serial dilution, 10 point dose response). HEK293 cells stably expressing the full-length androgen receptor were seeded at a density of 20,000 cells/well in the assay plate. The assay plate was then incubated at room temperature for 10 minutes and at 37° C., 5% CO2 for 20 minutes. Testosterone was added to the assay plate at 1 nM final concentration and the assay plate incubated at 37° C., 5% CO2 for 20 h. After the incubation period, Steady-glo was added to the assay plate and mixed at room temperature for 20 minutes on an orbital shaker, before reading out on the EnVision plate reader.

Assay [5] has as its target AR (Homo sapiens (Human), UniProt P10275, T878A). Kind of assay: AR binding assay. Here is the method:
AR binding assay: To assess AR binding, test compound (top dose 10 μM, 4 fold serial dilution, 8 point dose response) and control (progesterone) were transferred to the assay plate. Cytosol from LnCaP cells was added to the plate, followed by addition of radiolabeled ^3H-R1881 at a final concentration of 1 nM. The plate was sealed, and the reaction was incubated at 300 rpm at 4° C. for 24 hrs. Radioligand absorption buffer (10 mM Tris-HCl, pH 7.4; 1.5 mM EDTA; 1 mM DTT; 0.25% charcoal; 0.0025% dextran) was then added to the plate, mixed, and incubated at 4° C. for 15 minutes. The plate was then centrifuged at 3000 rpm for 30 minutes at 4° C. The supernatant was transferred to the scint-tube and Tri-carb was used for scintillation counting. The data was analyzed using GraphPadPrism v5.0 and binding IC50 was determined as the concentration where 50% inhibition of radioligand binding was observed.

Assay [6] deals with 22Rv1 cells. Briefly: Cell viability assay, 22Rv1. Format: cell-based. Particulars: Homo sapiens. On the procedure:
as §1

[7] abbreviates: T47D, read-out: T47D (GI50, nM).
[8] abbreviates: LNCaP, read-out: LNCap (GI50, nM).
Setting [9] is: IEC-6, 144 h, read-out: IEC-6 (IC50, nM).
[10] abbreviates: LNCap cells, 6 days, CellTiterGlo, read-out: LNCap (GI50).
[11] abbreviates: 144 h, IEC-6 cells, 6 days, CellTiterGlo, read-out: IEC-6 (IC50).

Read-outs that look alike come from different tables or passages of the source.

full-length androgen receptor, sequence (P10275 whole entry): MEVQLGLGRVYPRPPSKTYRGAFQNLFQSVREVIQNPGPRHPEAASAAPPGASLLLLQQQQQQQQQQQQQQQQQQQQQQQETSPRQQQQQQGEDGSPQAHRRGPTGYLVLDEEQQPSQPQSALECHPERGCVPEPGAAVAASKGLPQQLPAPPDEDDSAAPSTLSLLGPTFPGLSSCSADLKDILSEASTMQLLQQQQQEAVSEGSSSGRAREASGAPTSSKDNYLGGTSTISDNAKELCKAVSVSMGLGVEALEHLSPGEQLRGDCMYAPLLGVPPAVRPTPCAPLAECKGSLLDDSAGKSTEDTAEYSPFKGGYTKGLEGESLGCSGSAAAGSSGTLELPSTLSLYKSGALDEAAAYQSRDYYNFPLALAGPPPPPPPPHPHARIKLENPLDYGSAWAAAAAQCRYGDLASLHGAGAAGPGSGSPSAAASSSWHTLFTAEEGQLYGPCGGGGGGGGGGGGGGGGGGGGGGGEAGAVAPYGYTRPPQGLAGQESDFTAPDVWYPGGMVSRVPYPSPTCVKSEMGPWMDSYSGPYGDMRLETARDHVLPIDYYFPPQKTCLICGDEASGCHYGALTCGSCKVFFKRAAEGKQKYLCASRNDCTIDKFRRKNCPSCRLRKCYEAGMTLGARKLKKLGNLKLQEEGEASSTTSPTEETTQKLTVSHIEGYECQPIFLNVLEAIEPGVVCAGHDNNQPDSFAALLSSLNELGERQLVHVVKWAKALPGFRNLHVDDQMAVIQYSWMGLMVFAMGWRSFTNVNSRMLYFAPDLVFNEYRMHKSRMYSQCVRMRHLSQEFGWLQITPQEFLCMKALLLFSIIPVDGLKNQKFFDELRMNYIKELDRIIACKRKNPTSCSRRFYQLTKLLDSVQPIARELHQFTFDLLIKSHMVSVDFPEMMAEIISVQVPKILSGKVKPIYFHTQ
AR, sequence (P10275 whole entry T878A): as the sequence (P10275 whole entry) above, with T878A counted along it

By GI50 is commonly meant the concentration giving 50% growth inhibition. `CC[C@@]1(O)C(=O)OCc2c1cc1n(c2=O)Cc2cc3c(CN(C)C)c(OC(=O)N4C5CCC4CN(CCCCCCN(C)c4ccc([C@H]6C[C@@]7(C)[C@@H](CC[C@]7(OC(C)=O)C(C)=O)[C@@H]7CCC8=CC(=O)CCC8=C76)cc4)C5)ccc3nc2-1` [Compound 22, (S)-10-((Dimethylamino)methyl)-4-ethyl-4-hydroxy-3,14-dioxo-3,4,12,14-tetrahydro-1H-pyrano[3′,4′:6,7]indolizino[1,2-b]quinolin-9-yl 3-(6-((4-((8S,11R,13S,14S,17R)-17-acetoxy-17-acetyl-13-methyl-3-oxo-2,3,6,7,8,11,12,13,14,15,16,17-dodecahydro-1H-cyclopenta[a]phenanthren-11-yl)phenyl)(methyl)amino)hexyl)-3,8-diazabicyclo[3.2.1]octane-8-carboxylate]: the GI50 in assay [1] (setting [7]) and in assay [2] (setting [8]) was 10 to 500 nM each time. In assay [3] (setting [9]), the IC50 lay within 10 to 500 nM.
As for `CCc1c2c(nc3ccc(OC(=O)N4CCN(CCCCCCN(C)c5ccc([C@H]6C[C@@]7(C)[C@@H](CC[C@]7(OC(C)=O)C(C)=O)[C@@H]7CCC8=CC(=O)CCC8=C76)cc5)CC4)cc13)-c1cc3c(c(=O)n1C2)COC(=O)[C@]3(O)CC` [Compound 4, (S)-4,11-diethyl-4-hydroxy-3,14-dioxo-3,4,12,14-tetrahydro-1H-pyrano[3′,4′:6,7]indolizino[1,2-b]quinolin-9-yl 4-(6-((4-((8S,11R,13S,14S,17R)-17-acetoxy-17-acetyl-13-methyl-3-oxo-2,3,6,7,8,11,12,13,14,15,16,17-dodecahydro-1H-cyclopenta[a]phenanthren-11-yl)phenyl)(methyl)amino)hexyl)piperazine-1-carboxylate], the 50% growth inhibitory concentration (GI50) in assay [1] (setting [7]) and in assay [2] (setting [8]) was 10 to 500 nM each time.
As for `CC[C@@]1(O)C(=O)OCc2c1cc1n(c2=O)Cc2cc3c(CN(C)C)c(OC(=O)N4C[C@H](C)N(CCCCCCN(C)c5ccc([C@H]6C[C@@]7(C)[C@@H](CC[C@]7(OC(C)=O)C(C)=O)[C@@H]7CCC8=CC(=O)CCC8=C76)cc5)C[C@H]4C)ccc3nc2-1` [Compound 24, (S)-10-((Dimethylamino)methyl)-4-ethyl-4-hydroxy-3,14-dioxo-3,4,12,14-tetrahydro-1H-pyrano[3′,4′:6,7]indolizino[1,2-b]quinolin-9-yl (2R,5S)-4-(6-((4-((8S,11R,13S,14S,17R)-17-acetoxy-17-acetyl-13-methyl-3-oxo-2,3,6,7,8,11,12,13,14,15,16,17-dodecahydro-1H-cyclopenta[a]phenanthren-11-yl)phenyl)(methyl)amino)hexyl)-2,5-dimethylpiperazine-1-carboxylate], the GI50 in assay [1] (setting [7]) and in assay [2] (setting [8]) was 10 to 500 nM each time. The IC50 in assay [3] (setting [9]) is 501 to 1000 nM.
Take `CC[C@@]1(O)C(=O)OCc2c1cc1n(c2=O)Cc2cc3c(CN(C)C)c(OC4CCN(CCCCCCN(C)c5ccc([C@H]6C[C@@]7(C)C(CC[C@]7(OC(C)=O)C(C)=O)C7CCC8=CC(=O)CCC8=C76)cc5)CC4)ccc3nc2-1` (stereo partly drawn) [Compound 9, (11R,13S,17R)-17-Acetyl-11-(4-((6-(4-(((S)-10-((dimethylamino)methyl)-4-ethyl-4-hydroxy-3,14-dioxo-3,4,12,14-tetrahydro-1H-pyrano[3′,4′:6,7]indolizino[1,2-b]quinolin-9-yl)oxy)piperidin-1-yl)hexyl)(methyl)amino)phenyl)-13-methyl-3-oxo-2,3,6,7,8,11,12,13,14,15,16,17-dodecahydro-1H-cyclopenta[a]phenanthren-17-yl acetate]: the IC50 is more than 1000 nM in assay [4]; 10 to 500 nM in assay [5] (cytosol from LnCaP cells, 3H-R1881 1 nM, 4° C. 24 hrs, read-out: AR binding); more than 1000 nM in assay [3] (setting [11]). The GI50 in assay [1] (T47D cells, 6 days, CellTiterGlo, read-out: T47D (GI50)) is 10 to 500 nM; in assay [2] (setting [10]), 501 to 1000 nM.
Consider `CC[C@@]1(O)C(=O)OCc2c1cc1n(c2=O)Cc2cc3c(CN(C)C)c(OC(=O)N4C[C@@H](C)N(CCCCCCN(C)c5ccc([C@H]6C[C@@]7(C)[C@@H](CC[C@]7(OC(C)=O)C(C)=O)[C@@H]7CCC8=CC(=O)CCC8=C76)cc5)C[C@@H]4C)ccc3nc2-1` [Compound 23, (S)-10-((Dimethylamino)methyl)-4-ethyl-4-hydroxy-3,14-dioxo-3,4,12,14-tetrahydro-1H-pyrano[3′,4′:6,7]indolizino[1,2-b]quinolin-9-yl (2S,5R)-4-(6-((4-((8S,11R,13S,14S,17R)-17-acetoxy-17-acetyl-13-methyl-3-oxo-2,3,6,7,8,11,12,13,14,15,16,17-dodecahydro-1H-cyclopenta[a]phenanthren-11-yl)phenyl)(methyl)amino)hexyl)-2,5-dimethylpiperazine-1-carboxylate], for which the GI50 in assay [1] (setting [7]) was in the range of 10 to 500 nM; in assay [2] (setting [8]) it was 501 to 1000 nM. In assay [3] (setting [9]), the IC50 lay in the range of 10 to 500 nM.
`CC[C@@]1(O)C(=O)OCc2c1cc1n(c2=O)Cc2cc3c(CN(C)C(=O)CO[C@H]4CC[C@H]5[C@@H]6CC[C@H]7CC(=O)CC[C@]7(C)[C@H]6CC[C@]45C)c(O)ccc3nc2-1` [Compound 25, 2-(((5S,8R,9S,10S,13S,14S,17S)-10,13-Dimethyl-3-oxohexadecahydro-1H-cyclopenta[a]phenanthren-17-yl)oxy)-N—(((S)-4-ethyl-4,9-dihydroxy-3,14-dioxo-3,4,12,14-tetrahydro-1H-pyrano[3′,4′:6,7]indolizino[1,2-b]quinolin-10-yl)methyl)-N-methylacetamide]: the GI50 lay within 10 to 500 nM in assay [2] (setting [10]) and 10 to 500 nM in assay [6] (144 h, 22RV1 cells, 6 days, CellTiterGlo, read-out: 22RV1 (GI50)). The IC50 in assay [3] (setting [11]) is more than 1000 nM.
As for `CC[C@@]1(O)C(=O)OCc2c1cc1n(c2=O)Cc2cc3c(CN(C)C)c(OC4CCN(CCCCCCCN(C)c5ccc([C@H]6C[C@@]7(C)C(CC[C@]7(OC(C)=O)C(C)=O)C7CCC8=CC(=O)CCC8=C76)cc5)CC4)ccc3nc2-1` (stereo partly drawn) [Compound 10, (11R,13S,17R)-17-Acetyl-11-(4-((7-(4-(((S)-10-((dimethylamino)methyl)-4-ethyl-4-hydroxy-3,14-dioxo-3,4,12,14-tetrahydro-1H-pyrano[3′,4′:6,7]indolizino[1,2-b]quinolin-9-yl)oxy)piperidin-1-yl)heptyl)(methyl)amino)phenyl)-13-methyl-3-oxo-2,3,6,7,8,11,12,13,14,15,16,17-dodecahydro-1H-cyclopenta[a]phenanthren-17-yl-acetate], the IC50 in assay [4] was more than 1000 nM; in assay [5], 10 to 500 nM. For the same compound, the GI50 in assay [1] (setting [7]) and in assay [2] (setting [8]) was 10 to 500 nM each time.
For the compound `CC[C@@]1(O)C(=O)OCc2c1cc1n(c2=O)Cc2cc3c(CN(C)C)c(OC(=O)N4CCN(C(=O)C5CCN(c6ccc(C(=O)N[C@H]7CC[C@H](Oc8ccc(C#N)c(Cl)c8)CC7)nn6)CC5)CC4)ccc3nc2-1` [Compound 26, (S)-10-((Dimethylamino)methyl)-4-ethyl-4-hydroxy-3,14-dioxo-3,4,12,14-tetrahydro-1H-pyrano[3′,4′:6,7]indolizino[1,2-b]quinolin-9-yl 4-(1-(6-(((1r,4r)-4-(3-chloro-4-cyanophenoxy)cyclohexyl)carbamoyl)pyridazin-3-yl)piperidine-4-carbonyl)piperazine-1-carboxylate], the concentration for 50% growth inhibition (GI50) in assay [2] (setting [8]) was in the range of 10 to 500 nM; in assay [6] (22Rv1, 144 h, read-out: 22RV1 (GI50, nM)), 10 to 500 nM. The IC50 in assay [3] (setting [9]) is more than 1000 nM.
